Activity calls are given as the source filed them. The rule behind the calls is not given here.
Target: methionyl-tRNA synthetase (Trypanosoma brucei brucei)
Test: T. brucei MetRS inhibitors, orthogonal readout, late-stage follow-up, orthogonal assay for T. brucei MetRS inhibitor project, biochemical, fluorescence polarization, dose response, round 3 (AID 1053134)
Details: recombinant T. brucei MetRS

Structure (SMILES)	IC50
O=C(Cn1cc(C(=O)C(=O)NCc2ccccc2)c2ccccc21)Nc1cc(Oc2ccccc2)cc(C(F)(F)F)c1	inactive
O=C(Cc1ccc(Nc2nc3ccc(Br)cc3[nH]2)cc1)NCCc1cccs1	inactive
CCN(CC)C(=O)C(=O)c1cn(CC(=O)Nc2cc(Oc3ccc(OC)cc3)cc(C(F)(F)F)c2)c2ccccc12	477 nM
Nc1c(Cl)ncnc1Nc1ccc(C(=O)O)cc1	8500 nM
CCN(CC)C(=O)C(=O)c1cn(CCNc2cc(Oc3ccccc3)cc(C(F)(F)F)c2)c2ccccc12	> 119000 nM (inactive)
CCN(CC)C(=O)C(=O)c1cn(CC(=O)Nc2cc(Oc3ccccc3OC)cc(C(F)(F)F)c2)c2ccccc12	521 nM
CCN(CC)C(=O)C(=O)c1cn(CC(=O)Nc2cc(Oc3ccc(F)cc3)cc(C(F)(F)F)c2)c2ccccc12	632 nM

Continued, values first:

IC50	Structure (SMILES)
> 119000 nM (inactive)	CCN(CC)C(=O)Cc1cn(CC(=O)Nc2cccc(C(F)(F)F)c2)c2ccccc12
381 nM	CCN(CC)C(=O)C(=O)c1cn(CC(=O)Nc2cc(Oc3ccccc3F)cc(C(F)(F)F)c2)c2ccccc12
145 nM	CCN(CC)C(=O)C(=O)c1cn(CC(=O)Nc2cc(Oc3ccccc3)cc(C(F)(F)F)c2)c2ccccc12
> 119000 nM (inactive)	CCN(CC)C(=O)C(=O)c1cn(CCNc2cccc(C(F)(F)F)c2)c2ccccc12
360 nM	CCN(CC)C(=O)C(=O)c1cn(CC(=O)Nc2cccc(C(F)(F)F)c2)c2ccccc12

Reference: PubChem BioAssay AID1053134 (The Scripps Research Institute Molecular Screening Center, 2014)
